ChEMBL document CHEMBL5131383, “Structure-based design, synthesis, and evaluation of inhibitors with high selectivity for PARP-1 over PARP-2” (Eur J Med Chem, 2022)
Calls of active or inactive are those of the source. No cut-off for these calls is given here.

Experiments:
[1] = target: T1, Poly [ADP-ribose] polymerase 1 (Homo sapiens, UniProt P09874); assay: Inhibition of human PARP1 using NAD+ as substrate at 5 nM incubated for 1 hr by ELISA relative to control
[2] = target: T2, Poly [ADP-ribose] polymerase 2 (Homo sapiens, UniProt Q9UGN5); assay: Inhibition of human PARP2 using NAD+ as substrate at 5 nM incubated for 1 hr by ELISA relative to control
[3] = target: T1, Poly [ADP-ribose] polymerase 1; assay: Inhibition of human PARP1 using NAD+ as substrate incubated for 1 hr by ELISA
A549 [4] = assay: Antiproliferative activity against human A549 cells assessed as inhibition of cell growth incubated for 48 hrs by MTT assay; format: functional, cell-based; details: A549, 48 h
[5] = target: T2, Poly [ADP-ribose] polymerase 2; assay: Inhibition of human PARP2 using NAD+ as substrate incubated for 1 hr by ELISA
MCF7 = assay: Antiproliferative activity against human MCF7 cells assessed as inhibition of cell growth incubated for 48 hrs by MTT assay; format: functional, cell-based; details: MCF7, 48 h
MX1 = assay: Antiproliferative activity against human BRCA mutant MX1 cells assessed as inhibition of cell growth incubated for 48 hrs by MTT assay; format: functional, cell-based; details: MX1, 48 h
MDA-MB-436 = assay: Antitumor activity against human BRCA1 mutant MDA-MB-436 cells xenografted athymic BALB/c mouse assessed as inhibition of tumor volume at 50 mg/kg/day, po administered for 18 days and measured twice weekly; format: functional, organism-based; details: time 18.0 day
Mus musculus = assay: In vivo inhibition of PARP1 in athymic BALB/c mouse xenografted with human BRCA1 mutant MDA-MB-436 cells assessed as prevention of PAR formation 50 mg/kg/day, po measured after 48 hrs by Western blot analysis; format: functional, organism-based
[6] = Toxicity athymic BALB/c mouse xenografted with human BRCA1 mutant MDA-MB-436 cells assessed as change in body weight at 50 mg/kg/day, po administered for 18 days and measured twice weekly; format: organism-based; details: in vivo, 432 h, time 18 day
A549 [7] = assay: […] human A549 cells assessed as reduction in PAR level measured after 48 hrs by Western blot analysis; format: functional, cell-based; details: dose 2.5-10 µM, DDE = dose-dependent effect
Homo sapiens = organism: Homo sapiens; assay: Selectivity index, ratio of IC50 for human PARP2 to IC50 for human PARP1

T1 sequence (P09874 whole entry): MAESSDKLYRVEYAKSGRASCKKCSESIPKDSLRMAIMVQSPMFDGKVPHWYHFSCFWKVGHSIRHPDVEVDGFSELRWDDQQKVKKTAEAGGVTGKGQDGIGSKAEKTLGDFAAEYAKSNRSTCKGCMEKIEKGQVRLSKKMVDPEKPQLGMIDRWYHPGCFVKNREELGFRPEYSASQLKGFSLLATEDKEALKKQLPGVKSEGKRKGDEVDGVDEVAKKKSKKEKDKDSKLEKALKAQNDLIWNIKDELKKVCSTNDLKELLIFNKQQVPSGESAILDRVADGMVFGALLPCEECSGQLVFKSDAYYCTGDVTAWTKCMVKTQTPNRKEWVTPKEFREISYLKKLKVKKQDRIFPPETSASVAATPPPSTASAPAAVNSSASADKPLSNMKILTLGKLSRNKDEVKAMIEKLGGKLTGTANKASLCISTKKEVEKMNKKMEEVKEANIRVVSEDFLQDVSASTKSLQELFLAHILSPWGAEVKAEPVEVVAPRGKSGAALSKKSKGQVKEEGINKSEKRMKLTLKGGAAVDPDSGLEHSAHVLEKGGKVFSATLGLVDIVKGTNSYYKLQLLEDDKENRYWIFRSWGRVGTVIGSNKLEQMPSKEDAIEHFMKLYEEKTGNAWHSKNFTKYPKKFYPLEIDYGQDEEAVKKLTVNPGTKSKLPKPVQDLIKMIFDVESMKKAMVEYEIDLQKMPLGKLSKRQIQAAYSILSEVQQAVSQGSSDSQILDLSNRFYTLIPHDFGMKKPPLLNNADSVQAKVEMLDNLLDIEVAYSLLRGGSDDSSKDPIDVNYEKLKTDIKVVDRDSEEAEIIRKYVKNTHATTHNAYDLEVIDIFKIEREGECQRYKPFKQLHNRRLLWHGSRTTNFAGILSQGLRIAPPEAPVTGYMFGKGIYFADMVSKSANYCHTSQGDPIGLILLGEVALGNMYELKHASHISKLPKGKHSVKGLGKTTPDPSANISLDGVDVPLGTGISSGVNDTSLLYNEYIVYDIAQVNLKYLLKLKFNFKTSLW
T2 sequence (Q9UGN5 whole entry): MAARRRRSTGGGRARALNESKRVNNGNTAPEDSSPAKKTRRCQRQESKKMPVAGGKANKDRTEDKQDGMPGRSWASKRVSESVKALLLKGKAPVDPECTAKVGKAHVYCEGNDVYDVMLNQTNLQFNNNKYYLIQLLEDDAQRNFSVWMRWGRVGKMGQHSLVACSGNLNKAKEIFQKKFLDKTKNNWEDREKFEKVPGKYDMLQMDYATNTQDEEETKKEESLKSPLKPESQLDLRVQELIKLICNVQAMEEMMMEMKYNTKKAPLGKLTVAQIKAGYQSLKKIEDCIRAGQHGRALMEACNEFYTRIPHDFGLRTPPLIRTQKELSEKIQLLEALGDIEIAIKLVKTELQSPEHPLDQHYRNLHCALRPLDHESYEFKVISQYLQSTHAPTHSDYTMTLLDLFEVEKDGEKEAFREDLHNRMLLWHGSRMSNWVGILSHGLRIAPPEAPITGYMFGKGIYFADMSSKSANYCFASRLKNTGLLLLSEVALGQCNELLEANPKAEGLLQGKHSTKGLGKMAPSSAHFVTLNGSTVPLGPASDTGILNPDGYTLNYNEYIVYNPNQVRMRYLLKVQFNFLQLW

SMILES | inhibition [1] | inhibition [2] | other results
O=C1NCCc2c(-c3cccc(CN4CCn5c(nnc5C(F)(F)F)C4)c3)[nH]c3cc(F)cc1c23 | 48.4% | 24.4% | –
O=Cc1ccc(-c2[nH]c3cc(F)cc4c3c2CCNC4=O)cc1 | 93.6% | 57.8% | –
C[C@@H]1CN(Cc2cccc(-c3[nH]c4cc(F)cc5c4c3CCNC5=O)c2)CCN1C(=O)OC(C)(C)C | 16.3% | 49.4% | –
Nc1ccc(-c2[nH]c3cc(F)cc4c3c2CCNC4=O)cc1 | 84.5% | 46% | –
Cc1cc(N2CCN(Cc3ccc(-c4[nH]c5cc(F)cc6c5c4CCNC6=O)cc3)CC2)n(-c2ccccc2)n1 | 47.2% | 29.7% | –
O=C(O)c1ccc(-c2[nH]c3cc(F)cc4c3c2CCNC4=O)cc1 | 43.2% | 48.1% | –
COc1cccc(-c2[nH]c3cc(F)cc4c3c2CCNC4=O)c1 | 72% | 35.9% | –
O=C1NCCc2c(-c3ccc(N4CCOCC4)cc3)[nH]c3cc(F)cc1c23 | 88.9% | 54.2% | –
O=C(O)c1cccc(-c2[nH]c3cc(F)cc4c3c2CCNC4=O)c1 | 44.9% | 43.3% | –
CC(C)(C)OC(=O)NC1CCCN(Cc2cccc(-c3[nH]c4cc(F)cc5c4c3CCNC5=O)c2)C1 (stereo unspecified) | 55.6% | 43.2% | –
NC1CCN(Cc2cccc(-c3[nH]c4cc(F)cc5c4c3CCNC5=O)c2)CC1 | 85.8% | 15.3% | IC50 [3]: 0.96 nM; IC50 (A549 [4]): 106 µM; Activity (MDA-MB-436): Active; IC50 [5]: 61.9 nM; inhibition (Mus musculus): Active; Activity [6]: Non-Toxic; IC50 (MCF7): 124 µM; IC50 (MX1): 9.46 µM; Activity (A549 [7]): Dde
COC(=O)c1ccc(-c2[nH]c3cc(F)cc4c3c2CCNC4=O)cc1 | 83.3% | 50.1% | –
C[C@@H]1CN(Cc2cccc(-c3[nH]c4cc(F)cc5c4c3CCNC5=O)c2)CCN1 | 78.3% | 50.2% | –
CCN(CC)Cc1ccc(-c2[nH]c3cc(F)cc4c3c2CCNC4=O)cc1 | 94% | 35.2% | IC50 [3]: 0.61 nM; IC50 (A549 [4]): 75.8 µM; IC50 [5]: 11.2 nM; IC50 (MCF7): 80.6 µM; IC50 (MX1): 49.3 µM
CC(C)(C)OC(=O)NC1CCN(Cc2cccc(-c3[nH]c4cc(F)cc5c4c3CCNC5=O)c2)CC1 | 76.5% | 40.7% | –
O=C1NCCc2c(-c3ccc(N4CCNCC4)cc3)[nH]c3cc(F)cc1c23 | 83.9% | 55.8% | –

SMILES | inhibition [1] | inhibition [2] | other results
CC1(NC(=O)OC(C)(C)C)CCN(Cc2ccc(-c3[nH]c4cc(F)cc5c4c3CCNC5=O)cc2)CC1 | 87% | 40.5% | –
O=C1NCCc2c(-c3ccc(CN4CCN(C(c5ccccc5)c5ccccc5)CC4)cc3)[nH]c3cc(F)cc1c23 | 26.5% | 36.8% | –
O=C1NCCc2c(-c3ccc(OCc4ccccc4)cc3)[nH]c3cc(F)cc1c23 | 50.6% | 36.4% | –
Cc1ccc(-c2[nH]c3cc(F)cc4c3c2CCNC4=O)cc1[N+](=O)[O-] | 93.2% | 54.6% | –
O=C1NCCc2c(-c3cccc(CN4CCN(C(=O)C5CC5)CC4)c3)[nH]c3cc(F)cc1c23 | 46.1% | 20.7% | –
O=C1NCCc2c(-c3ccc(B(O)O)cc3)[nH]c3cc(F)cc1c23 | 67.4% | 42.7% | –
COc1ccc(-c2[nH]c3cc(F)cc4c3c2CCNC4=O)cc1 | 82.8% | 49.4% | –
Nc1cccc(-c2[nH]c3cc(F)cc4c3c2CCNC4=O)c1 | 76.3% | 58.9% | –
CC1(N)CCN(Cc2cccc(-c3[nH]c4cc(F)cc5c4c3CCNC5=O)c2)CC1 | 79.2% | 21.3% | –
N#Cc1ccc(-c2[nH]c3cc(F)cc4c3c2CCNC4=O)cc1 | 94.1% | 53.4% | –
CC(C)(C)c1ccc(-c2[nH]c3cc(F)cc4c3c2CCNC4=O)cc1 | 56.2% | 42.3% | –
CC(C)(C)OC(=O)NC1CCCN(Cc2ccc(-c3[nH]c4cc(F)cc5c4c3CCNC5=O)cc2)C1 (stereo unspecified) | 90.1% | 34.8% | –
NC1CCCN(Cc2cccc(-c3[nH]c4cc(F)cc5c4c3CCNC5=O)c2)C1 (stereo unspecified) | 64.8% | 13.1% | –
O=C1NCCc2c(-c3cccc(CN4CCC(F)(F)CC4)c3)[nH]c3cc(F)cc1c23 | 38.4% | 24.3% | –
O=C1NCCc2c(-c3ccc([N+](=O)[O-])cc3)[nH]c3cc(F)cc1c23 | 88.7% | 55.5% | –
CC1(NC(=O)OC(C)(C)C)CCN(Cc2cccc(-c3[nH]c4cc(F)cc5c4c3CCNC5=O)c2)CC1 | 59.7% | 41.8% | –

The next lines start with results.

inhibition [1] | inhibition [2] | SMILES | other results
49.8% | 30.4% | CC(=O)N1CCN(Cc2cccc(-c3[nH]c4cc(F)cc5c4c3CCNC5=O)c2)CC1 | –
89.9% | 45.2% | CC1(N)CCN(Cc2ccc(-c3[nH]c4cc(F)cc5c4c3CCNC5=O)cc2)CC1 | –
95.7% | 63.8% | NC1CCN(Cc2ccc(-c3[nH]c4cc(F)cc5c4c3CCNC5=O)cc2)CC1 | IC50 [3]: 0.41 nM; IC50 (A549 [4]): 85.9 µM; IC50 [5]: 4.21 nM; IC50 (MCF7): 59.5 µM; IC50 (MX1): 65.4 µM
31.2% | 20.3% | C[C@@H]1CN(Cc2ccc(-c3[nH]c4cc(F)cc5c4c3CCNC5=O)cc2)CCN1C(=O)OC(C)(C)C | –
82% | 42.4% | CC(C)(C)OC(=O)NC1CCN(Cc2ccc(-c3[nH]c4cc(F)cc5c4c3CCNC5=O)cc2)CC1 | IC50 [3]: 1.17 nM; IC50 [5]: 8.04 nM; Ratio IC50 (Homo sapiens): 6.9
69.1% | 23.5% | O=C1NCCc2c(-c3ccc(CN4CCn5c(nnc5C(F)(F)F)C4)cc3)[nH]c3cc(F)cc1c23 | –
87.9% | 33.5% | NC1CCCN(Cc2ccc(-c3[nH]c4cc(F)cc5c4c3CCNC5=O)cc2)C1 (stereo unspecified) | –
84.5% | 25.1% | O=C1NCCc2c(-c3ccc(CN4CCN(CCO)CC4)cc3)[nH]c3cc(F)cc1c23 | IC50 [3]: 1.54 nM; IC50 [5]: 6.68 nM; Ratio IC50 (Homo sapiens): 4.3
83.9% | 36.5% | CC(C)N1CCN(Cc2ccc(-c3[nH]c4cc(F)cc5c4c3CCNC5=O)cc2)CC1 | –
98% | 77.6% | CNCc1ccc(-c2[nH]c3cc(F)cc4c3c2CCNC4=O)cc1 [RUCAPARIB] | IC50 (A549 [4]): 32.2 µM; inhibition (Mus musculus): Active; IC50 (MCF7): 6.61 µM; IC50 (MX1): 6.51 µM
74.2% | 33.8% | CC(C)(C)OC(=O)N1CCN(Cc2ccc(-c3[nH]c4cc(F)cc5c4c3CCNC5=O)cc2)CC1 | –
86.5% | 36.3% | CCOC(=O)C1CCCN(Cc2ccc(-c3[nH]c4cc(F)cc5c4c3CCNC5=O)cc2)C1 (stereo unspecified) | –
93.7% | 47% | O=C1NCCc2c(-c3ccc(CN4CCN(c5ncccn5)CC4)cc3)[nH]c3cc(F)cc1c23 | IC50 [3]: 1.19 nM; IC50 [5]: 5.71 nM; Ratio IC50 (Homo sapiens): 4.8
22.1% | 17.3% | O=C1NCCc2c(-c3ccc(CN4CCN(c5cccc(C(F)(F)F)c5)CC4)cc3)[nH]c3cc(F)cc1c23 | –
69.3% | 20.5% | O=C1NCCc2c(-c3ccc(CN4CCCC(F)(F)C4)cc3)[nH]c3cc(F)cc1c23 | –
56.6% | 29% | CC(C)N1CCN(Cc2cccc(-c3[nH]c4cc(F)cc5c4c3CCNC5=O)c2)CC1 | –
61.2% | 29% | CN1CCN(Cc2cccc(-c3[nH]c4cc(F)cc5c4c3CCNC5=O)c2)CC1 | –
68.8% | 18% | O=C1NCCc2c(-c3ccc(CN4CCC(F)(F)CC4)cc3)[nH]c3cc(F)cc1c23 | –
82.9% | 28.7% | CC(=O)N1CCN(Cc2ccc(-c3[nH]c4cc(F)cc5c4c3CCNC5=O)cc2)CC1 | IC50 [3]: 1.31 nM; IC50 [5]: 6.4 nM; Ratio IC50 (Homo sapiens): 4.9
83.1% | 42% | CN1CCN(Cc2ccc(-c3[nH]c4cc(F)cc5c4c3CCNC5=O)cc2)CC1 | –
90.4% | 58.8% | C[C@@H]1CN(Cc2ccc(-c3[nH]c4cc(F)cc5c4c3CCNC5=O)cc2)CCN1 | IC50 [3]: 0.66 nM; IC50 (A549 [4]): 48.2 µM; Activity (MDA-MB-436): Active; IC50 [5]: 2.91 nM; inhibition (Mus musculus): Active; Activity [6]: Toxic; IC50 (MCF7): 46.5 µM; IC50 (MX1): 16.8 µM
85% | 44.1% | O=C1NCCc2c(-c3ccc(CN4CCN(C(=O)C5CC5)CC4)cc3)[nH]c3cc(F)cc1c23 | –
